Experimental data reported in article PMC6509195 (mBio, 2019).

Assays:
PP_4108 = biological target: T1, PP_4108 (Pseudomonas putida, UniProt Q88FI7); assay: colorimetric glutamate assay of transamination; format: biochemical; conditions: 2KG as amino acceptor, PLP, 50 mM HEPES pH 7.5, 30°C, 16 h
T1 sequence (Q88FI7 1-416): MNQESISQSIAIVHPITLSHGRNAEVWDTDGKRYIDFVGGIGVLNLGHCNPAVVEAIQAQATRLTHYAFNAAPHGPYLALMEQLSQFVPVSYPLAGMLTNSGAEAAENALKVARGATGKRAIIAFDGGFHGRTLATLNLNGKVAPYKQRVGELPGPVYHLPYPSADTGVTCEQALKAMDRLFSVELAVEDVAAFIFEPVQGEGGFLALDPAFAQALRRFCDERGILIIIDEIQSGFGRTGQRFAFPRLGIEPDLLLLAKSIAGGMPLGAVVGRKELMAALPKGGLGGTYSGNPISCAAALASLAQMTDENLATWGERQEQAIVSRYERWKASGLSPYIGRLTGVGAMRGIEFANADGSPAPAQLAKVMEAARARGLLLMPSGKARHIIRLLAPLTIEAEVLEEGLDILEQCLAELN

CsiD (PP_2909) [1] = biological target: T2, CsiD (PP_2909) (Pseudomonas putida, UniProt Q88IU0); assay: LC-TOF detection of L-2HG; format: biochemical; conditions: 2-oxoacid co-substrate in place of 2KG; glutarate, FeSO4, HEPES pH 7, 22°C
T2 construct: gene glaH
T2 sequence (Q88IU0 1-325): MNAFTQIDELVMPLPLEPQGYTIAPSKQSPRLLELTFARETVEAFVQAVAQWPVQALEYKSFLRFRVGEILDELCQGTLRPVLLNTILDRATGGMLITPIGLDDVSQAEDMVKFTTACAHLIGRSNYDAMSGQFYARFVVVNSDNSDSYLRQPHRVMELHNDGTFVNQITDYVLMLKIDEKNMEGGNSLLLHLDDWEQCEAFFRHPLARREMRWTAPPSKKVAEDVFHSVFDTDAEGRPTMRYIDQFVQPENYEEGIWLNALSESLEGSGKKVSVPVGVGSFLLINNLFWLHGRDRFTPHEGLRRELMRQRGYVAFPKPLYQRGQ

[2] = biological target: T3, CsiD homolog from E. coli (Escherichia coli, UniProt P76621); assay: LC-TOF detection of L-2HG; format: biochemical; conditions: 2-oxoacid co-substrate in place of 2KG; glutarate, FeSO4, HEPES pH 7, 22°C
T3 construct: gene glaH
T3 sequence (P76621 1-325): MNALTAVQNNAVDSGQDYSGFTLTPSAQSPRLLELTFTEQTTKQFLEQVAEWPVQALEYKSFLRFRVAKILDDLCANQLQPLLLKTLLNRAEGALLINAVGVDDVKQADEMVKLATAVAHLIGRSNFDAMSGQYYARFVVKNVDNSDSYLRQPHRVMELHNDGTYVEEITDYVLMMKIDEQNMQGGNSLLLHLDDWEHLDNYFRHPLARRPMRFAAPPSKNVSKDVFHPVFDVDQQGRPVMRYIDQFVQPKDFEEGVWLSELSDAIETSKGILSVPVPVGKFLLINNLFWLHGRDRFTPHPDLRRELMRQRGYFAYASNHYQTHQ

[3] = biological target: T3, CsiD homolog from E. coli; assay: LC-TOF product analysis; format: biochemical; conditions: 2KG co-substrate, FeSO4, HEPES pH 7, 22°C
CsiD (PP_2909) [4] = biological target: T2, CsiD (PP_2909); assay: LC-TOF / HPLC product analysis; format: biochemical; conditions: 2KG co-substrate, 25 μM FeSO4, ascorbate, DTT, 50 mM HEPES pH 7, 22°C, 3 h
purified protein = substrate: O=C(O)CCCC(=O)C(=O)O; assay: purified protein; format: biochemical, Pseudomonas putida; conditions: 100 mM Tris-HCl pH 7, 10 mM MgCl2, 50 μM FeCl2, Fe(II)-dependent

## N[C@@H](CCCC(=O)O)C(=O)O [L-2-aminoadipate]
PP_4108
  relative activity: The enzyme was most active on L-2AA

## O=C(O)CCCC(=O)C(=O)O [2-oxoadipate]
CsiD (PP_2909) [1]
  LC-TOF detection of L-2HG: all three CsiD homologs could utilize both 2OA and 2KG, but not oxaloacetate
[2]
  LC-TOF detection of L-2HG: all three CsiD homologs could utilize both 2OA and 2KG, but not oxaloacetate

## O=C(O)CCCC(=O)O [glutarate]
[3]
  LC-TOF product analysis: found that only glutarate served as a hydroxylation substrate
CsiD (PP_2909) [4]
  LC-TOF / HPLC product analysis: purified csiD and confirmed that it hydroxylated glutarate in a 2KG-dependent manner

B1: PP_5260 (Pseudomonas putida KT2440) (protein)
chain: MPANDFVSPDSIRAQFSAAMSLMYKQEVPLYGTLLELVSEINQQVMAQQPEVAEALRWTGEIERLDQERHGAIRVGTAEELATIARLFAVMGMQPVGYYDLSSAGVPVHSTAFRAVHEQSLHVSPFRVFTSLLRLELIDNPQLRELAQSILAKRQIFTSRALELIAQCEREGGLDAADAETFVQEALHTFRWHQDATVTAEQYQQLHDQHRLIADVVAFKGPHINHLTPRTLDIDAIQLGMPAKGIPPKAVVEGPPTRRHPILLRQTSFKALQETVAFRDQQGREGSHTARFGEIEQRGAALTPKGRQLYDKLLDATRVALGGAPAEANAERYMALLQANFAEFPDDLAQMREQGLAYFRYFATEKGLAARDQEGRPTTLQGLIDAGHVHFEALVYEDFLPVSAAGIFQSNLGDDAQAEYGSNANREAFEAALGLQVQDELALYAQSERRSLQACAQALNLGSM
Purified protein
  Km: 0.06 (± 0.03) mM
